As a reminder, the inhibition is the percentage by which the read-out fell short of the control. As a reminder, the Inhibition is the change of the read-out against control, counted positive when it falls. Read a low Inhibition as a response near the control.

“And” between values parts separate entries of the source, which are not always exact repeats. Equal entries are not always repeated. The source made the active and inactive calls. No cut-off for these calls is given here.

What all share (assay type): functional
Test [1] is filed under the species Mus musculus. The test is described as follows: Antispasmodic activity evaluated as percentage reduction in the contractile response of the estrous uterus in mouse.
The species named for test [2] is Mus musculus. The test is described as follows: Compound was evaluated for the percentage inhibition of PGF2-alpha-induced contractions at a concentration of 10 e-5 M in isolated mouse ileum.
For test [3], the species on record is Mus musculus. The test is described as follows: Compound was evaluated for the percentage inhibition of the control PGF2-alpha response at a concentration of 3 x 10 e-4 M in isolated mouse ileum.
Test [4] is filed under the species Mus musculus. The test is described as follows: Compound was evaluated for the percentage inhibition of PGF2-alpha-induced contractions at a concentration of 10 e-5 M in isolated mouse ileum; NI=No inhibition.

In the test filed under Mus musculus [1], `CCN(CC)CCC[C@H](C)Nc1ccnc2cc(Cl)ccc12` had a Reduction of 50%. In the test listed under Mus musculus [2], `CCN(CC)CCC[C@@H](CCl)Nc1ccnc2cc(Cl)ccc12.Cl` registered an inhibition at 10 µM of 28%. For the same compound, the Inhibition in the test listed under Mus musculus [3] was 55% and 32%. Take `CCN(CC)CCC[C@H](CCl)Nc1ccnc2cc(Cl)ccc12`: in the test filed under Mus musculus [3] (Mus musculus, Ileum), 300 µM produced 17% inhibition. Besides, the inhibition entry in the test listed under Mus musculus [4] is “inactive”.

(Values after ChEMBL document CHEMBL1121638, “Synthesis and preliminary pharmacological evaluation of asymmetric chloroquine analogues” (1981).)
